In US12570666B2, “Furoindazole derivatives” (Bayer Aktiengesellschaft, priority 2019, dated 2026):

Biological target: T1, human GPR84 receptor (Homo sapiens, UniProt Q9NQS5)
T1 construct: frozen aliquots prepared by acCELLerate; host or cells: CHO-K1
Test: cAMP HTRF assay for identification of cellular GPR84 antagonists
Assay type: cell-based
Settings: CHO-K1 cells stably expressing human GPR84; Forskolin + agonist 6-OAU (EC80); average or median values
Text: cAMP HTRF® Assay for Identification of Cellular GPR84 Antagonists
By using a Homogenous Time-Resolved Fluorescence (HTRF®) based assay (#62AM5PEJ, Cisbio, Condolet, France) the inhibition of the Gi-coupled GPR84 receptor can be detected. CHO-K1 cells stably expressing human GPR84 receptor (purchased from DiscoveRx, now Eurofins) were used and treated with Forskolin (F6886, Sigma, Germany) to stimulate membrane adenylyl cyclases and thereby unspecific cAMP formation. Activation of the Gi-coupled GPR84 by a natural or small molecule agonist (e.g. 6-n-octyl aminouracile, inhouse) results in inhibition of cellular cAMP formation which can be released again by antagonists to this receptor. Detection and quantification of cellular cAMP levels in this HTRF assay is achieved by interaction between a fluorescent cAMP tracer (cAMP-d2) and an Eu-cryptate labelled anti-cAMP antibody. Following excitation at 337 nm this pairing allows for the generation of a fluorescence resonance energy transfer (FRET) between the partners and results in FRET induced emissions at 665 nm and 620 nm, the latter representing background signal by Eu-cryptate labelled anti-cAMP antibody. Maximal signal is obtained in the absence of any cellular cAMP (no competition for the binding of the tracer to the antibody). Given the combination of the Gi coupling properties of GPR84 and the competitive nature of the detection system agonist treatment should result in an increase in the HTRF signal due to lowered cAMP levels. Any signal decrease in the presence of Forskolin, agonist and compound is indicative of antagonist mediated abrogation of GPR84 signalling.
For the assay, frozen aliquots of CHO-K1 cells expressing hGPR84 (prepared by acCELLerate, Hamburg, Germany) were thawed and a cell suspension (1.67E+06 cells/mL) in assay media (Ham's F12 Nutrient Mix, Thermo Fisher Scientific, Waltham, USA; 5% fetal calf serum, Biomol, Hamburg, Germany) containing cAMP-d2 (dilution 1:20, supplied with the kit #62AM5PEJ, Cisbio, Condolet, France) was prepared. After recovery of cells for 20 minutes at 37° C., 3 μL/well cell suspension including cAMP-d2 were added to a pre-dispensed assay plate (Greiner Bio-One, Kremsmuenster, Austria) containing 50 nl/well test compound in 100% DMSO or 100% DMSO as control. This was followed by a 30 minutes incubation step at room temperature. […] The reaction was stopped by addition of 3 μL/well lysis buffer containing cAMP Eu-Cryptate antibody (dilution 1:20) (both supplied with the kit #62AM5PEJ, Cisbio, Condolet, France). To enable complete lysis, plates were incubated for 60 minutes at room temperature before measurement in an HTRF reader, e.g. a PHERAstar (BMG Labtech, Ortenberg, Germany).
From the fluorescence emissions at 665 nm (FRET) and at 620 nm (background signal of Eu-cryptate) the ratio (emission at 665 nm divided by emission at 620 nm×10000) was calculated and the data were normalized (reaction without test compound, only 100% DMSO=0% inhibition; all other assay components except agonist=100% inhibition). For dose response testing on the same microtiter plate, compounds were tested at 11 different concentrations in the range of 20 μM to 0.07 nM (20 μM, 5.7 μM, 1.6 μM, 0.47 μM, 0.13 μM, 38 nM, 11 nM, 3.1 nM, 0.89 nM, 0.25 and 0.07 nM; dilution series prepared before the assay at the level of the 100-fold conc. stock solutions by serial 1:3.5 dilutions in 100% DMSO) in duplicate values for each concentration. IC50 values were calculated by 4-parameter fitting using a commercial software package (Genedata Screener, Basel, Switzerland).
Examples were tested in selected biological assays one or more times. […]

T1 sequence (Q9NQS5 whole entry): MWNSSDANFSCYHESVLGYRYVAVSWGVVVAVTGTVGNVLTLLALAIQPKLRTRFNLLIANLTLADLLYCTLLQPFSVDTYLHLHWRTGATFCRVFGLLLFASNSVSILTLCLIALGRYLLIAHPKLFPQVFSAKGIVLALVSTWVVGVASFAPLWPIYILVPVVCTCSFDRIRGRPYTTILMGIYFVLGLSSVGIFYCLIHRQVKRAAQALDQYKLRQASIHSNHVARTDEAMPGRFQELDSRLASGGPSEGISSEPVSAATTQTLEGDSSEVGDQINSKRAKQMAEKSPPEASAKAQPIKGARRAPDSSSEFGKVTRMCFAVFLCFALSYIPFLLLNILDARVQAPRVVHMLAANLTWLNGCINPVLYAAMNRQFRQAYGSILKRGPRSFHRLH

IC50 [nM]	Structure (SMILES)
23	CC1(C)CCC(CNC(=O)c2oc3c(c2C(F)(F)F)-c2nn(C[C@H]4COCCO4)cc2CC3)O1 (mixture of isomers) [Example 223, N-{[(2±)-5,5-dimethyloxolan-2-yl]methyl}-2-{[(2S)-1,4-dioxan-2-yl]methyl}-8-(trifluoromethyl)-4,5-dihydro-2H-furo[2,3-g]indazole-7-carboxamide]
180	Cc1c(C(=O)NCc2ncco2)oc2c1-c1nn(Cc3ccccn3)cc1C1(CC1)C2 [Example 124, 8′-methyl-N-(1,3-oxazol-2-ylmethyl)-2′-(pyridin-2-ylmethyl)-2′,5′-dihydrospiro[cyclopropane-1,4′-furo[2,3-g]indazole]-7′-carboxamide]
7390	Cc1c(C(=O)NC[C@H]2COCCO2)oc2c1-c1nn(C[C@H]3COCCO3)cc1C1(CCC1)C2 [Example 144, N,2′-bis[(2S)-1,4-dioxan-2-ylmethyl]-8′-methyl-2′,5′-dihydrospiro[cyclobutane-1,4′-furo[2,3-g]indazole]-7′-carboxamide]
320	Cc1c(C(=O)NC[C@@H]2COCCO2)oc2c1-c1nn(C[C@H]3CCOC3)cc1CC2 [Example 112, N-[(2R)-1,4-dioxan-2-ylmethyl]-8-methyl-2-[(3R)-tetrahydrofuran-3-ylmethyl]-4,5-dihydro-2H-furo[2,3-g]indazole-7-carboxamide]
2000	Cc1nonc1CNC(=O)c1oc2c(c1C)-c1nn(Cc3ccccn3)cc1CC2 [Example 15, 8-methyl-N-[(4-methyl-1,2,5-oxadiazol-3-yl)methyl]-2-(pyridin-2-ylmethyl)-4,5-dihydro-2H-furo[2,3-g]indazole-7-carboxamide]
5070	Cc1c(C(=O)NCc2nnc[nH]2)oc2c1-c1nn(Cc3ccccn3)cc1CC2 [Example 20, 8-methyl-2-(pyridin-2-ylmethyl)-N-(4H-1,2,4-triazol-3-ylmethyl)-4,5-dihydro-2H-furo[2,3-g]indazole-7-carboxamide]
60	COC(=O)N1CC(F)(Cn2cc3c(n2)-c2c(oc(C(=O)NC[C@@H]4CCCO4)c2C)CC3)C1 [Example 167, methyl 3-fluoro-3-[(8-methyl-7-{[(2S)-tetrahydrofuran-2-ylmethyl]carbamoyl}-4,5-dihydro-2H-furo[2,3-g]indazol-2-yl)methyl]azetidine-1-carboxylate]
200	Cc1c(C(=O)NC[C@@H]2COCCO2)oc2c1-c1nn(C[C@@H]3CCOC3)cc1CC2 [Example 114, N-[(2R)-1,4-dioxan-2-ylmethyl]-8-methyl-2-[(3S)-tetrahydrofuran-3-ylmethyl]-4,5-dihydro-2H-furo[2,3-g]indazole-7-carboxamide]
11	Cc1c(C(=O)NC[C@@H]2COCCO2)oc2c1-c1nn(Cc3ccccn3)cc1C1(CC1)C2 [Example 150]
47	Cc1c(C(=O)NC[C@@H]2COCCO2)oc2c1-c1nn(C[C@H]3COCCO3)cc1CC2 [Example 90, N-[(2R)-1,4-dioxan-2-ylmethyl]-2-[(2S)-1,4-dioxan-2-ylmethyl]-8-methyl-4,5-dihydro-2H-furo[2,3-g]indazole-7-carboxamide]
16	Cc1c(C(=O)NCC2CCCO2)oc2c1-c1nn(CC3COc4ncccc4O3)cc1CC2 (single isomer, unassigned) [Example 52-2]
35	Cc1c(C(=O)NC[C@@H]2COCCO2)oc2c1-c1nn(CC3CC3)cc1C1(CC1)C2 [Example 131, 2′-(cyclopropylmethyl)-N-[(2R)-1,4-dioxan-2-ylmethyl]-8′-methyl-2′,5′-dihydrospiro[cyclopropane-1,4′-furo[2,3-g]indazole]-7′-carboxamide]
29	Cc1c(C(=O)NCC2CCC(C)(C)O2)oc2c1-c1nn(C[C@H]3COCCO3)cc1C1(CC1)C2 (mixture of isomers) [Example 195]
16	CC1CCC(CNC(=O)c2oc3c(c2C(F)(F)F)-c2nn(CC4COCCO4)cc2CC3)O1 (single isomer, unassigned) [Example 224-1, 2-{[(2S)-1,4-dioxan-2-yl]methyl}-N-{[(2R or 2S,5R or 5S)-5-methyloxolan-2-yl]methyl}-8-(trifluoromethyl)-4,5-dihydro-2H-furo[2,3-g]indazole-7-carboxamide]
190	Cc1ccc(Cn2cc3c(n2)-c2c(oc(C(=O)NC[C@@H]4COCCO4)c2C)CC3)c(C)n1 [Example 78, 2-[(2,6-dimethylpyridin-3-yl)methyl]-N-[(2R)-1,4-dioxan-2-ylmethyl]-8-methyl-4,5-dihydro-2H-furo[2,3-g]indazole-7-carboxamide]
6	Cc1cnc(CNC(=O)c2oc3c(c2C(F)(F)F)-c2nn(C[C@H]4COCCO4)cc2[C@H](C)C3)nc1 (single isomer, unassigned) [Example 303, (4R or 4S)-2-{[(2S)-1,4-dioxan-2-yl]methyl}-4-methyl-N-[(5-methylpyrimidin-2-yl)methyl]-8-(trifluoromethyl)-4,5-dihydro-2H-furo[2,3-g]indazole-7-carboxamide]
118	Cc1c(C(=O)NCC2CCC(C)O2)oc2c1-c1nn(Cc3ccccn3)cc1CC2 (mixture of isomers) [Example 176]
200	Cc1c(C(=O)NC[C@@H]2CCCO2)oc2c1-c1nn(C[C@@H]3COCCO3)cc1CC2 [Example 87, 2-[(2R)-1,4-dioxan-2-ylmethyl]-8-methyl-N-[(2S)-tetrahydrofuran-2-ylmethyl]-4,5-dihydro-2H-furo[2,3-g]indazole-7-carboxamide]
260	Cc1c(C(=O)NC[C@@H]2CCCO2)oc2c1-c1nn(Cc3cncnc3)cc1CC2 [Example 85, 8-methyl-2-(pyrimidin-5-ylmethyl)-N-[(2S)-tetrahydrofuran-2-ylmethyl]-4,5-dihydro-2H-furo[2,3-g]indazole-7-carboxamide]
180	Cc1c(C(=O)NC[C@@H]2CCCO2)oc2c1-c1nn(Cc3ncccn3)cc1CC2 [Example 83, 8-methyl-2-(pyrimidin-2-ylmethyl)-N-[(2S)-tetrahydrofuran-2-ylmethyl]-4,5-dihydro-2H-furo[2,3-g]indazole-7-carboxamide]
5	Cc1cnc(CNC(=O)c2oc3c(c2C(F)(F)F)-c2nn(C[C@H]4COCCO4)cc2[C@H](C)C3)cn1 (single isomer, unassigned) [Example 258, (4R or 4S)-2-{[(2S)-1,4-dioxan-2-yl]methyl}-4-methyl-N-[(5-methylpyrazin-2-yl)methyl]-8-(trifluoromethyl)-4,5-dihydro-2H-furo[2,3-g]indazole-7-carboxamide]
13	C[C@@H]1Cc2oc(C(=O)NC[C@@H]3COCCO3)c(C(F)(F)F)c2-c2nn(CC3CCOCC3)cc21 (single isomer, unassigned) [Example 263, (4R or 4S)-N-{[(2R)-1,4-dioxan-2-yl]methyl}-4-methyl-2-[(oxan-4-yl)methyl]-8-(trifluoromethyl)-4,5-dihydro-2H-furo[2,3-g]indazole-7-carboxamide]
25	C[C@@H]1Cc2oc(C(=O)NCc3ccn(C)n3)c(C(F)(F)F)c2-c2nn(C[C@H]3COCCO3)cc21 (single isomer, unassigned) [Example 257, (4R or 4S)-2-{[(2S)-1,4-dioxan-2-yl]methyl}-4-methyl-N-[(1-methyl-1H-pyrazol-3-yl)methyl]-8-(trifluoromethyl)-4,5-dihydro-2H-furo[2,3-g]indazole-7-carboxamide]
192	Cn1ccc(CNC(=O)c2oc3c(c2C(F)(F)F)-c2nn(C[C@H]4COCCO4)cc2C2(CCC2)C3)n1 [Example 270, 2′-[(2S)-1,4-dioxan-2-ylmethyl]-N-[(1-methyl-1H-pyrazol-3-yl)methyl]-8′-(trifluormethyl)-2′,5′-dihydrospiro[cyclobutan-1,4′-furo[2,3-g]indazol]-7′-carboxamide]
